What was measured:
[1] = tested on: corn; experiment: Test B pre/postemergence corn; assay type: in vivo, Zea mays
In short: (§1)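 Test chemicals in a non-phytotoxic solvent mixture with surfactant were sprayed preemergence onto planted seeds and postemergence onto plants 2 to 18 cm tall (1- to 4-leaf stage). After twelve to sixteen days in a greenhouse, injury was visually rated against untreated controls from 0 (no effect) to 10 (complete control).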

[2] = tested on: surinam grass; experiment: Test B pre/postemergence surinam grass; assay type: in vivo, Brachiaria decumbens
In short: as §1

[3] = tested on: morningglory; experiment: Test B pre/postemergence morningglory; assay type: in vivo, Ipomoea hederacea
In short: as §1

[4] = tested on: pigweed; experiment: Test B pre/postemergence pigweed; assay type: in vivo, Amaranthus retroflexus
In short: as §1

[5] = tested on: rice; experiment: Test B flood test rice; assay type: in vivo, Oryza sativa
In short: (§2)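 Read-out is a visual response score from 0 (no effect) to 10 (complete control), assigned by comparison with untreated controls. Treatment was applied at the 2-leaf stage, and plants stayed in the greenhouse for twelve to sixteen days before scoring.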

[6] = tested on: velvetleaf; experiment: Test B pre/postemergence velvetleaf; assay type: in vivo, Abutilon theophrasti
In short: as §1

[7] = tested on: cocklebur; experiment: Test B pre/postemergence cocklebur; assay type: in vivo, Xanthium strumarium
In short: as §1

[8] = tested on: wheat; experiment: Test B pre/postemergence wheat; assay type: in vivo, Triticum aestivum
In short: as §1

[9] = tested on: duck salad; experiment: Test B flood test duck salad; assay type: in vivo, Heteranthera limosa
In short: as §2

[10] = tested on: wild oat; experiment: Test B pre/postemergence wild oat; assay type: in vivo, Avena fatua
In short: as §1

[11] = tested on: blackgrass; experiment: Test B pre/postemergence blackgrass; assay type: in vivo, Alopecurus myosuroides
In short: as §1

[12] = tested on: rape; experiment: Test B pre/postemergence rape; assay type: in vivo, Brassica napus
In short: as §1

[13] = tested on: smallflower flatsedge; experiment: Test B flood test smallflower flatsedge; assay type: in vivo, Cyperus difformis
In short: as §2

[14] = tested on: bedstraw; experiment: Test B pre/postemergence bedstraw; assay type: in vivo, Galium aparine
In short: as §1

[15] = tested on: purple nutsedge; experiment: Test B pre/postemergence purple nutsedge; assay type: in vivo, Cyperus rotundus
In short: as §1

[16] = tested on: bamyardgrass; experiment: Test B flood test barnyardgrass; assay type: in vivo, Echinochloa crus-galli
In short: as §2

[17] = Preemergence, Rate 62 g/ha, scale of 0 to 10 where 0 is no effect and 10 is complete control
[18] = Preemergence, Rate 250 g/ha, scale of 0 to 10 where 0 is no effect and 10 is complete control
[19] = Preemergence, Rate 500 g/ha, scale of 0 to 10 where 0 is no effect and 10 is complete control
[20] = Rate 62 g/ha, Postemergence, scale 0 to 10 (0 no effect, 10 complete control)
[21] = Rate 125 g/ha, Postemergence, scale of 0 to 10 where 0 is no effect and 10 is complete control
[22] = Rate 250 g/ha, Postemergence, scale of 0 to 10 where 0 is no effect and 10 is complete control
[23] = Rate 500 g/ha, Postemergence, scale 0 to 10, 0 no effect, 10 complete control
[24] = Rate 62 g/ha, headed Pre-emergence (flood test species), scale 0 to 10 (0 no effect, 10 complete control)
[25] = Rate 125 g/ha, Pre-emergence, flood test species, scale 0 to 10 where 0 is no effect and 10 is complete control
[26] = Rate 250 g/ha, Pre-emergence, flood-test species, scale 0 to 10, 0 is no effect, 10 is complete control
[27] = Rate 500 g/ha, Pre-emergence, flood test species, scale 0 to 10 (0 no effect, 10 complete control)

CC(C)N(C(=O)n1oc(=O)n(Cc2ccccc2-c2ccccc2)c1=O)c1ccc(F)cc1 [Compound 313]
Corn plant response rating [1, 17]: 0 | Corn plant response rating (0 to 10 scale) ([1]; Preemergence, Rate 125 g/ha): 0 | Corn plant response rating [1, 18]: 0 | Corn plant response rating [1, 19]: 0 | Corn plant response rating [1, 20]: 0 | Corn plant response rating [1, 21]: 0 | Plant response rating, Corn [1, 22]: 0 | Corn plant response rating [1, 23]: 0 | B. signalgrass plant response rating [2, 17]: 0 | B. signalgrass plant response rating (0 to 10 scale, 0 is no effect, 10 is complete control) ([2]; Preemergence, Rate 125 g/ha): 0 | B. signalgrass plant response rating [2, 18]: 0 | B. signalgrass plant response rating [2, 19]: 0 | B. signalgrass plant response rating [2, 20]: 0 | B. signalgrass plant response rating [2, 21]: 0 | Plant response rating, B. signalgrass [2, 22]: 0 | B. signalgrass plant response rating [2, 23]: 0 | Morningglory plant response rating [3, 17]: 0 | Morningglory plant response rating (0 to 10 scale) ([3]; Preemergence, Rate 125 g/ha): 0 | Morningglory plant response rating [3, 18]: 0 | Morningglory plant response rating [3, 19]: 0 | Morningglory plant response rating [3, 20]: 2 | Morningglory plant response rating [3, 21]: 3 | Plant response rating, Morningglory [3, 22]: 3 | Redroot pigweed plant response rating [4, 17]: 0 | Redroot pigweed plant response rating (0 to 10 scale) ([4]; Preemergence, Rate 125 g/ha): 0 | Redroot pigweed plant response rating [4, 18]: 0 | Redroot pigweed plant response rating [4, 19]: 0 | Redroot pigweed plant response rating [4, 20]: 0 | Redroot pigweed plant response rating [4, 21]: 0 | Plant response rating, Redroot pigweed [4, 22]: 2 | Rice plant response rating [5, 24]: 0 | Rice plant response rating [5, 25]: 0 | Rice plant response rating [5, 26]: 0 | Rice plant response rating [5, 27]: 0 | Velvetleaf plant response rating [6, 17]: 0 | Velvetleaf plant response rating (0 to 10 scale) ([6]; Preemergence, Rate 125 g/ha): 0 | Velvetleaf plant response rating [6, 18]: 0 | Velvetleaf plant response rating [6, 19]: 0 | Velvetleaf plant response rating [6, 20]: 0 | Velvetleaf plant response rating [6, 21]: 0 | Plant response rating, Velvetleaf [6, 22]: 0 | Cocklebur plant response rating [7, 17]: 0 | Cocklebur plant response rating (0 to 10 scale) ([7]; Preemergence, Rate 125 g/ha): 0 | Cocklebur plant response rating [7, 18]: 0 | Cocklebur plant response rating [7, 19]: 0 | Cocklebur plant response rating [7, 20]: 0 | Cocklebur plant response rating [7, 21]: 0 | Plant response rating, Cocklebur [7, 22]: 0 | Cocklebur plant response rating [7, 23]: 0 | Wheat plant response rating [8, 17]: 0 | Wheat plant response rating (0 to 10 scale) ([8]; Preemergence, Rate 125 g/ha): 0 | Wheat plant response rating [8, 18]: 0 | Wheat plant response rating [8, 19]: 0 | Wheat plant response rating [8, 20]: 0 | Wheat plant response rating [8, 21]: 0 | Plant response rating, Wheat [8, 22]: 0 | Ducksalad plant response rating [9, 24]: 0 | Ducksalad plant response rating [9, 25]: 0 | Ducksalad plant response rating [9, 26]: 0 | Ducksalad plant response rating [9, 27]: 0 | Wild oats plant response rating [10, 17]: 0 | Wild oats plant response rating (0 to 10 scale) ([10]; Preemergence, Rate 125 g/ha): 0 | Wild oats plant response rating [10, 18]: 0 | Wild oats plant response rating [10, 19]: 0 | Wild oats plant response rating [10, 20]: 0 | Wild oats plant response rating [10, 21]: 0 | Plant response rating, Wild oats [10, 22]: 0 | Blackgrass plant response rating [11, 17]: 0 | Blackgrass plant response rating (0 to 10 scale) ([11]; Preemergence, Rate 125 g/ha): 0 | Blackgrass plant response rating [11, 18]: 0 | Blackgrass plant response rating [11, 19]: 0 | Blackgrass plant response rating [11, 20]: 0 | Blackgrass plant response rating [11, 21]: 0 | Plant response rating, Blackgrass [11, 22]: 0 | Blackgrass plant response rating [11, 23]: 0 | Rape plant response rating [12, 17]: 0 | Rape plant response rating (0 to 10 scale) ([12]; Preemergence, Rate 125 g/ha): 0 | Rape plant response rating [12, 18]: 0 | Rape plant response rating [12, 19]: 0 | Rape plant response rating [12, 20]: 0 | Rape plant response rating [12, 21]: 0 | Plant response rating, Rape [12, 22]: 0 | S. Flatsedge plant response rating [13, 24]: 0 | S. Flatsedge plant response rating [13, 25]: 0 | S. Flatsedge plant response rating [13, 26]: 0 | S. Flatsedge plant response rating [13, 27]: 0 | Bedstraw plant response rating [14, 17]: 0 | Bedstraw plant response rating [14, 18]: 0 | Bedstraw plant response rating [14, 19]: 0 | Bedstraw plant response rating [14, 20]: 5 | Bedstraw plant response rating [14, 21]: 7 | Plant response rating, Bedstraw [14, 22]: 7 | Nutsedge plant response rating [15, 17]: 0 | Nutsedge plant response rating (0 to 10 scale) ([15]; Preemergence, Rate 125 g/ha): 0 | Nutsedge plant response rating [15, 18]: 0 | Nutsedge plant response rating [15, 19]: 0 | Nutsedge plant response rating [15, 20]: 0 | Nutsedge plant response rating [15, 21]: 0 | Plant response rating, Nutsedge [15, 22]: 0 | Barnyardgrass plant response rating [16, 24]: 0 | Barnyardgrass plant response rating [16, 25]: 0 | Barnyardgrass plant response rating [16, 26]: 0 | Barnyardgrass plant response rating [16, 27]: 0

Reference: patent US6737383B1, “Herbicidal oxadiazolidines” (priority 1999, dated 2004)
